Converted amounts (≈) assume the structure as drawn.
Legend:
Escherichia coli [1] = test: Antibacterial activity against Escherichia coli K-12 BW25113 measured every 10 mins after 24 hrs in presence of biotin; assay type: functional
Escherichia coli [2] = test: Antibacterial activity against Escherichia coli K-12 BW25113 measured every 10 mins after 24 hrs in absence of biotin; assay type: functional
Escherichia coli [3] = test: Inhibition of Escherichia coli His-tagged bioA at 1 uM using KAPA as substrate after 20 mins in presence of SAM relative to control
[4] = Chemical stability assessed as compound decomposition in double distilled water at 40 ug/ml at pH 7.4 after 24 hrs by HPLC analysis; assay type: physicochemical; settings: buffer, pH 7.4, 24 h

Compound: Cc1ccccc1SCC(=O)NN
- MIC (Escherichia coli [1]): > 256 µg/mL
- MIC (Escherichia coli [2]): 16 µg/mL (≈ 81.5 µM)
- inhibition (Escherichia coli [3]): 81%

Compound: CSCC(=O)NN
- MIC (Escherichia coli [1]): 64 µg/mL
- MIC (Escherichia coli [2]): 64 µg/mL (≈ 533 µM)
- inhibition (Escherichia coli [3]): 50%

Compound: NNC(=O)CS
- MIC (Escherichia coli [1]): 256 µg/mL
- MIC (Escherichia coli [2]): 256 µg/mL (≈ 2410 µM)
- inhibition (Escherichia coli [3]): 20%

Compound: CC(=O)NN
- MIC (Escherichia coli [1]): 128 µg/mL
- MIC (Escherichia coli [2]): 128 µg/mL (≈ 1730 µM)
- inhibition (Escherichia coli [3]): 7%

Compound: S=C1SCN(Cc2cccnc2)CN1Cc1cccnc1
- Stability [4]: Unstable

Compound: O=[N+]([O-])/C=C/c1cccc(F)c1
- Stability [4]: Unstable

Compound: O=C1C=CC(=O)N1Cc1cccs1
- Stability [4]: Unstable

Compound: NNC(=O)CSc1ccccc1Cl
- MIC (Escherichia coli [1]): > 256 µg/mL
- MIC (Escherichia coli [2]): 16 µg/mL (≈ 73.8 µM)
- inhibition (Escherichia coli [3]): 63%

Compound: NNC(=O)CSc1ccccc1[N+](=O)[O-]
- MIC (Escherichia coli [1]): > 256 µg/mL
- MIC (Escherichia coli [2]): 8 µg/mL (≈ 35.2 µM)
- inhibition (Escherichia coli [3]): 100%
